Molecules are shown by their SMILES.

In data set [1] the test system is A549. Nature of the data set: Antiproliferative activity against human A549 cells after 24 hrs by MTT assay. The format is functional, cell-based. Conditions: A549, 24 h.
Data set [2] relates to SGC-7901. Nature of the data set: Antiproliferative activity against human SGC7901 cells after 24 hrs by MTT assay. The data set is classed as functional, cell-based. The conditions noted are these: SGC-7901, 24 h.
Data set [3] concerns OVCAR-3. In words: Antiproliferative activity against human OVCAR3 cells after 24 hrs by MTT assay. The data set is classed as functional, cell-based. The conditions noted are these: OVCAR-3, 24 h.
Data set [4] relates to MDA-MB-231. In words: Antiproliferative activity against human MDA-MB-231 cells after 24 hrs by MTT assay. The format is functional, cell-based. Conditions: MDA-MB-231, 24 h.
Data set [5] is described as follows: Selectivity index, ratio of CC50 for human IOSE80 cells to IC50 for human A549 cells. The format is toxicity. Conditions: IOSE80 cells (CC50) versus A549 cells (IC50).
Data set [6] in a line: Selectivity index, ratio of CC50 for human HTB125 cells to IC50 for human A549 cells. The conditions noted are these: HTB125 cells (CC50) versus A549 cells (IC50). The data set is classed as toxicity.
The test system of data set [7] is A549. Nature of the data set: Antiproliferative activity against human A549 cells at 8 uM after 24 hrs by MTT assay relative to control. The format is functional.
The nature of data set [8]: Selectivity index, ratio of CC50 for HPAEpiC to IC50 for human A549 cells. The data set is classed as toxicity. Conditions: HPAEpiC cells (CC50) versus A549 cells (IC50).
For data set [9], the system named is A549. In words: Antiproliferative activity against human A549 cells at 3.2 uM after 24 hrs by MTT assay relative to control. The format is functional.
Data set [10] can be described thus: Selectivity index, ratio of CC50 for human GES1 cells to IC50 for human A549 cells. The data set is classed as toxicity. The conditions noted are these: GES1 cells (CC50) versus A549 cells (IC50).
Data set [11] concerns A549. In words: Antiproliferative activity against human A549 cells at 1.28 uM after 24 hrs by MTT assay relative to control. The data set is classed as functional.
Data set [12] concerns A549. Nature of the data set: Antiproliferative activity against human A549 cells at 0.512 uM after 24 hrs by MTT assay relative to control. The data set is classed as functional.
For data set [13], the system named is A549. In words: Antiproliferative activity against human A549 cells at 20 uM after 24 hrs by MTT assay relative to control. The format is functional.

As for `O=C(NNc1cccc(Cl)c1)c1ccccc1NS(=O)(=O)c1cnc(O)nc1O`, the concentration for half-maximal inhibition (IC50) in data set [1] worked out at 5.29 µM; in [2], 10.8 µM; in data set [3] it was 5.52 µM; in data set [4], 11.8 µM.
For `O=C(NNC(=O)c1cccc(NS(=O)(=O)c2cnc(O)nc2O)c1)c1cccc(Cl)c1` the same measures were 6 µM, 7.31 µM, 13.5 µM and 3.18 µM.
For `O=C(NNc1ccccc1F)c1cccc(NS(=O)(=O)c2cnc(O)nc2O)c1`, in that order: 11.1 µM, over 20 µM, 17 µM and over 20 µM.
With `O=C(NNc1ccc(F)cc1)c1ccccc1NS(=O)(=O)c1cnc(O)nc1O`, the half-inhibitory concentration (IC50) in data set [1], in [2], in [3] and in data set [4] was over 20 µM in each case.
Regarding `Nc1nc2[nH]cc(CCc3ccc(C(=O)N[C@@H](CCC(=O)O)C(=O)O)cc3)c2c(=O)[nH]1` [PEMETREXED], the IC50 in data set [1] is 3.31 µM; in data set [2], 9.08 µM; in [3], 6.9 µM; in data set [4], 3.85 µM. The selectivity ratio in data set [5] stood at 3.59; in data set [6] it was 6.02; in [8], 7.51; in data set [10], 3.22. Besides, the Activity in data set [7] is listed as 61.82%; in data set [9], 56.2%; in data set [11], 49.43%; in [12], 22.93%; in data set [13] it was 64.42%.
With `O=C(NNc1cccc(Cl)c1)c1ccc(NS(=O)(=O)c2cnc(O)nc2O)cc1`, the 50% inhibitory concentration (IC50) in data set [1] was 7.29 µM; in data set [2] it was 11.6 µM; in [3] it was 8.41 µM; in data set [4] it was 17.4 µM.
For `O=C(NNc1ccccc1Cl)c1cccc(NS(=O)(=O)c2cnc(O)nc2O)c1` the same measures were 1.46 µM, 2.27 µM, 3.35 µM and 2.09 µM.
In the case of `Cc1ccccc1C(=O)NNC(=O)c1ccccc1NS(=O)(=O)c1cnc(O)nc1O`, the half-maximal inhibitory concentration (IC50) is 5.45 µM in data set [1], 13 µM in data set [2], over 20 µM in [3] and 5.57 µM in [4].
Take `O=C(NNC(=O)c1ccccc1Cl)c1cccc(NS(=O)(=O)c2cnc(O)nc2O)c1`: the IC50 in [1] was 3.74 µM; in data set [2], 6.07 µM; in data set [3], 7.3 µM; in data set [4], 2.36 µM.
Turning to `O=C(NNc1ccccc1Cl)c1ccc(NS(=O)(=O)c2cnc(O)nc2O)cc1`, the IC50 amounted to 3.34 µM in data set [1], 3.63 µM in data set [2], 7.23 µM in [3] and 4.01 µM in data set [4].
Turning to `O=C(NNC(=O)c1ccccc1F)c1ccc(NS(=O)(=O)c2cnc(O)nc2O)cc1`, the 50% inhibitory concentration (IC50) in data set [1] is 7.61 µM; in data set [2], over 20 µM; in data set [3], 16 µM; in [4], over 20 µM.
On to `O=C(NNc1cccc(Cl)c1)c1cccc(NS(=O)(=O)c2cnc(O)nc2O)c1`, for which the IC50 in data set [1] is 6.64 µM; in [2], 11.8 µM; in [3], 8.04 µM; in data set [4], 7.76 µM.
Take `Cc1cccc(NNC(=O)c2ccc(NS(=O)(=O)c3cnc(O)nc3O)cc2)c1`: the 50% inhibitory concentration (IC50) in data set [1], in data set [2], in [3] and in [4] was over 20 µM each time.
Take `CCCCOc1ccc(C(=O)NNC(=O)c2ccccc2NS(=O)(=O)c2cnc(O)nc2O)cc1`: the half-inhibitory concentration (IC50) in [1] came out at 4.96 µM; in [2], 6.89 µM; in data set [3] it was 5.01 µM; in data set [4] it was 6.83 µM.
For `O=C(NNC(=O)c1ccccc1NS(=O)(=O)c1cnc(O)nc1O)c1ccc(F)cc1`, the IC50 in [1] is over 20 µM; in data set [2] it was over 20 µM; in data set [3], 15.1 µM; in data set [4], over 20 µM.
Take `O=C(NNc1ccc(F)cc1)c1cccc(NS(=O)(=O)c2cnc(O)nc2O)c1`: the half-maximal inhibitory concentration (IC50) in data set [1], in data set [2], in [3] and in data set [4] was over 20 µM each time.
`O=C(NNC(=O)c1cccc(Cl)c1)c1ccc(NS(=O)(=O)c2cnc(O)nc2O)cc1`: the half-maximal inhibitory concentration (IC50) was 2.29 µM in [1], 8.61 µM in data set [2], 7.71 µM in data set [3] and 4.16 µM in data set [4].
For `O=C(NNC(=O)c1ccc(NS(=O)(=O)c2cnc(O)nc2O)cc1)c1ccc(F)cc1` the same measures were over 20 µM, over 20 µM, over 20 µM and over 20 µM.
Regarding `CCCCOc1ccc(C(=O)NNC(=O)c2ccc(NS(=O)(=O)c3cnc(O)nc3O)cc2)cc1`, the IC50 in data set [1] was determined as 9.01 µM; in data set [2], 14.7 µM; in data set [3], 12.8 µM; in data set [4], 11.9 µM.
`Cc1ccccc1NNC(=O)c1cccc(NS(=O)(=O)c2cnc(O)nc2O)c1`: the IC50 is 14.2 µM in data set [1], over 20 µM in data set [2], over 20 µM in [3] and over 20 µM in data set [4].
As for `O=C(NNc1ccc(F)cc1)c1ccc(NS(=O)(=O)c2cnc(O)nc2O)cc1`, the IC50 in data set [1], in data set [2], in data set [3] and in data set [4] was over 20 µM throughout.
